Assay results as given in patent US20160106692A1 (priority 2014, published 2016).
Entries after “also recorded” stand apart in the source; their conditions may differ.

Legend:
[1] = test system: Influenza Virus A/Maryland/04/2011 H1N1; type: cell-based
[2] = test system: Influenza Virus A/California/07/2009 H1N1; type: cell-based

SMILES: CCOC(=O)C1=C[C@@H](OC(CC)CC)[C@H](NC(C)=O)[C@@H](N)C1 [Oseltamivir]
- plaque inhibition, result in words [1]: only partially sensitive; also recorded: reduced oseltamivir susceptibility
- plaque inhibition, result in words [2]: sensitive to this drug to 1 μM; also recorded: showed inhibitory effects
